Data: patent US10138255B2, “Piperazine derivatives as HIV protease inhibitors” (Merck Sharp & Dohme Corp., priority 2014, dated 2018)

What follows are molecules tested on HIV-1 (H9IIIB strain) (assay: Cell-Based HIV Infection Assay Using a Reporter (MT4-GFP cells)). Details: Human immunodeficiency virus 1, inflection point (IP) of viral growth inhibition; MT4-GFP cells infected with HIV-1 H9IIIB; 50% normal human serum; mean of at least two independent experiments; read-out: Cell Based IP (50% NHS).
In short: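 Inflection point from a 4-parameter curve of % viral growth inhibition, normalised to DMSO and triple-drug controls, using the 48 h/24 h ratio of GFP-positive cells (R0). MT4-GFP cells pre-infected 24 h with HIV-1 H9IIIB at low MOI; compounds tested in 50% normal human serum, 0.4% DMSO; mean of ≥2 experiments.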

| SMILES | EC50 [nM] |
| --- | --- |
| CC(F)(F)c1ccc([C@H](c2ccc(Cl)cc2)[C@H](N)C(=O)Nc2cncc(F)c2CC[C@H]2CN[C@@H]3CCCS(=O)(=O)N2C3)cn1 [Example 246, (2S,3R)-2-amino-3-(4-chlorophenyl)-3-(6-(1,1-difluoroethyl)pyridin-3-yl)-9-(4-(2-((6R,9S)-2,2-dioxido-2-thia-1,7-diazabicyclo[4.3.1]decan-9-yl)ethyl)-5-fluoropyridin-3-yl)propanamide] | 19 |
| CC(C)Oc1ncc([C@H](c2ccc(Cl)cc2)[C@H](N)C(=O)Nc2cccc(F)c2CC[C@H]2CN[C@@H]3CCCS(=O)(=O)N2C3)cn1 [Example 247, (βS)-4-chloro-N-(2-{2-[(6R,9S)-2,2-dioxido-2-thia-1,7-diazabicyclo[4.3.1]dec-9-yl]ethyl}-3-fluorophenyl)-β-[2-(1-methylethoxy)pyrimidin-5-yl]-L-phenylalaninamide] | 7.2 |
| CCO[C@H]1CC[C@H](C(c2ccc(Cl)c(F)c2)[C@H](N)C(=O)Nc2cccc(F)c2CC[C@H]2CN[C@@H]3CCCS(=O)(=O)N2C3)CC1 (stereo partly drawn) [Example 248, (βR).4-chloro-N-(2-{2-[(6R,9S)-2,2-dioxido-2-thia-1,7-diazabicyclo[4.3.1]dec-9-yl]ethyl}-3-fluorophenyl)-β-[(1r,4R)-4-ethoxycyclohexyl]-3-fluoro-L-phenylalaninamide] | 5.5 |
| N[C@H](C(=O)Nc1cccc(F)c1CC[C@H]1CN[C@@H]2CCCS(=O)(=O)N1C2)[C@H](c1cnc(C(F)(F)F)nc1)c1ccc(Cl)c(F)c1 [Example 249, (βS)-4-chloro-N-(2-{2-[(6R,9S)-2,2-dioxido-2-thia-1,7-diazabicyclo[4.3.1]dec-9-yl]ethyl}-3-fluorophenyl)-3-fluoro-β-[2-(trifluoromethyl)pyrimidin-5-yl]-L-phenylalaninamide] | 5.1 |
| CC(C)O[C@H]1CC[C@H]([C@H](c2ccc(Cl)cc2)[C@H](N)C(=O)Nc2cncc(F)c2CC[C@H]2CN[C@@H]3CCCS(=O)(=O)N2C3)CC1 [Example 250, (βR)-4-chloro-N-(4-{2-[(6R,9S)-2,2-dioxido-2-thia-1,7-diazabicyclo[4.3.1]dec-9-yl]ethyl}-5-fluoropyridin-3-yl)-β-[(1r,4R)-4-(1-methylethoxy)cyclohexyl]-L-phenylalaninamide] | 7.7 |
| N[C@H](C(=O)Nc1cccc(F)c1CC[C@H]1CN[C@@H]2CCCS(=O)(=O)N1C2)[C@@H](c1ccc(Cl)cc1)c1csc(C(F)(F)F)n1 [Example 251, (βR)-4-chloro-N-(2-{2-[(6R,9S)-2,2-dioxido-2-thia-1,7-diazabicyclo[4.3.1]dec-9-yl]ethyl}-3-fluorophenyl)-β-[2-(trifluoromethyl)-1,3-thiazol-4-yl]-L-phenylalaninamide] | 9.2 |
| COC(=O)N[C@H](C(=O)Nc1cccc(F)c1CC[C@H]1CN[C@@H]2CCCS(=O)(=O)N1C2)[C@@H](c1ccc(Cl)cc1)c1csc(C(F)(F)F)n1 [Example 252, methyl {(1S,2R)-2-(4-chlorophenyl)-1-[(2-{2-[(6R,9S)-2,2-dioxido-2-thia-1,7-diazabicyclo[4.3.1]dec-9-yl]ethyl}-3-fluorophenyl)carbamoyl]-2-[2-(trifluoromethyl)-1,3-thiazol-4-yl]ethyl}carbamate] | 17 |
| CCO[C@H]1CC[C@H]([C@H](c2ccc(Cl)c(F)c2)[C@H](N)C(=O)Nc2cncc(F)c2CC[C@H]2CN[C@@H]3CCCS(=O)(=O)N2C3)CC1 [Example 253, (βR)-4-chloro-N-(4-{2-[(6R,9S)-2,2-dioxido-2-thia-1,7-diazabicyclo[4.3.1]dec-9-yl]ethyl}-5-fluoropyridin-3-yl)-β-[(1r,4R)-4-ethoxycyclohexyl]-3-fluoro-L-phenylalaninamide] | 5.8 |
| COC[C@H]1CC[C@H]([C@H](c2ccc(Cl)cc2)[C@H](N)C(=O)Nc2cncc(F)c2CC[C@H]2CN[C@@H]3CCCS(=O)(=O)N2C3)CC1 [Example 254, (βR)-4-chloro-N-(4-{2-[(6R,9S)-2,2-dioxido-2-thia-1,7-diazabicyclo[4.3.1]dec-9-yl]ethyl}-5-fluoropyridin-3-yl)-β-[(1r,4R)-4-(methoxymethyl)cyclohexyl]-L-phenylalaninamide] | 3 |
| CCOC(=O)N1CCC(c2ccc(Cl)cc2)([C@H](NC(=O)OC)C(=O)Nc2cccc(F)c2CC[C@H]2CN[C@@H]3CCCS(=O)(=O)N2C3)CC1 [Example 255, ethyl 4-(4-chlorophenyl)-4-{(1S)-2-[(2-{2-[(6R,9S)-2,2-dioxido-2-thia-1,7-diazabicyclo[4.3.1]dec-9-yl]ethyl}-3-fluorophenyl)amino]-1-[(methoxycarbonyl)amino]-2-oxoethyl}piperidine-1-carboxylate] | 18 |
| COC(=O)N[C@H](C(=O)Nc1cncc(F)c1CC[C@H]1CN[C@@H]2CCCS(=O)(=O)N1C2)[C@@H](c1ccc(Cl)cc1)[C@H]1CC[C@H](C(F)(F)F)CC1 [Example 256, methyl {(1S,2R)-2-(4-chlorophenyl)-1-[(4-{2-[(6R,9S)-2,2-dioxido-2-thia-1,7-diazabicyclo[4.3.1]dec-9-yl]ethyl}-5-fluoropyridin-3-yl)carbamoyl]-2-[(1r,4R)-4-(trifluoromethyl)cyclohexyl]ethyl}carbamate] | 8.2 |
| COC(=O)N[C@H](C(=O)Nc1cccc(F)c1CC[C@H]1CN[C@@H]2CCCS(=O)(=O)N1C2)[C@@H](c1ccc(Cl)cc1)[C@H]1CC[C@H](OC2CC2)CC1 [Example 257, methyl {(1S,2R)-2-(4-chlorophenyl)-2-[(1r,4R)-4-(cyclopropyloxy)cyclohexyl]-1-[(2-{2-[(6R,9S)-2,2-dioxido-2-thia-1,7-diazabicyclo[4.3.1]dec-9-yl]ethyl}-3-fluorophenyl)carbamoyl]ethyl}carbamate] | 5.6 |
| CCOC[C@H]1CC[C@H]([C@H](c2ccc(Cl)cc2)[C@H](N)C(=O)Nc2cncc(F)c2CC[C@H]2CN[C@@H]3CCCS(=O)(=O)N2C3)CC1 [Example 258, (βR)-4-chloro-N-(4-{2-[(6R,9S)-2,2-dioxido-2-thia-1,7-diazabicyclo[4.3.1]dec-9-yl]ethyl}-5-fluoropyridin-3-yl)-β-[(1r,4R)-4-(ethoxymethyl)cyclohexyl]-L-phenylalaninamide] | 3.4 |
| CC(C)Oc1cnc([C@H](c2ccc(Cl)cc2)[C@H](N)C(=O)Nc2cccc(F)c2CC[C@H]2CN[C@@H]3CCCS(=O)(=O)N2C3)cn1 [Example 259, (βR)-4-chloro-N-(2-{2-[(6R,9S)-2,2-dioxido-2-thia-1,7-diazabicyclo[4.3.1]dec-9-yl]ethyl}-3-fluorophenyl)-β-[5-(1-methylethoxy)pyrazin-2-yl]-L-phenylalaninamide] | 4.2 |
| Cn1nc([C@H](c2ccc(Cl)cc2)[C@H](N)C(=O)Nc2cccc(F)c2CC[C@H]2CN[C@@H]3CCCS(=O)(=O)N2C3)cc1C(F)(F)F [Example 260, (βR)-4-chloro-N-(2-{2-[(6R,9S)-2,2-dioxido-2-thia-1,7-diazabicyclo[4.3.1]dec-9-yl]ethyl}-3-fluorophenyl)-β-[1-methyl-5-(trifluoromethyl)-1H-pyrazol-3-yl]-L-phenylalaninamide] | 4.4 |
| Cn1nc(C(F)(F)F)cc1[C@H](c1ccc(Cl)cc1)[C@H](N)C(=O)Nc1cccc(F)c1CC[C@H]1CN[C@@H]2CCCS(=O)(=O)N1C2 [Example 261, (βR)-4-chloro-N-(2-{2-[(6R,9S)-2,2-dioxido-2-thia-1,7-diazabicyclo[4.3.1]dec-9-yl]ethyl}-3-fluorophenyl)-β-[1-methyl-3-(trifluoromethyl)-1H-pyrazol-5-yl]-L-phenylalaninamide] | 8.7 |
